Patent publication US20100267561A1, “HERBICIDAL PYRIDAZINONE DERIVATIVES” (priority 2007, published 2010)

Assays:
Type in all cases: in vivo
[1] = test system: goosegrass (Eleusine indica); experiment: Test B pre-/postemergence plant response; details: for Goosegrass plant response rating: 8 g ai/ha
Method in brief: (§1)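 Seeds were sown and sprayed preemergence, while plants at 2 to 18 cm (1- to 4-leaf stage) got postemergence sprays. Compounds were formulated in a non-phytotoxic solvent mixture with surfactant. After 13 to 15 days in a greenhouse, injury was rated visually against untreated controls, 0 (no effect) to 100 (complete control).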

[2] = test system: downy bromegrass (Bromus tectorum); experiment: Test B pre-/postemergence plant response; details: for Bromegrass, Downy plant response rating: 8 g ai/ha
Method in brief: as §1

[3] = test system: Russian thistle (Salsola iberica); experiment: Test B pre-/postemergence plant response; details: Preemergence
Method in brief: as §1

[4] = test system: morningglory (Ipomoea coccinea); experiment: Test B pre-/postemergence plant response; details: for Morningglory plant response rating: 8 g ai/ha
Method in brief: as §1

soybean (Glycine max) = experiment: Test B pre-/postemergence plant response; details: for Soybean plant response rating: 8 g ai/ha
Method in brief: as §1

[5] = test system: surinam grass (Brachiaria decumbens); experiment: Test B pre-/postemergence plant response; details: for Surinam Grass plant response rating: 8 g ai/ha
Method in brief: as §1

[6] = test system: eastern black (E.B.) nightshade (Solanum ptycanthum); experiment: Test B pre-/postemergence plant response; details: Preemergence
Method in brief: as §1

[7] = test system: common (oilseed) sunflower (Helianthus annuus); experiment: Test B pre-/postemergence plant response; details: Preemergence
Method in brief: as §1

[8] = test system: giant foxtail (Setaria faberii); experiment: Test B pre-/postemergence plant response; details: for Foxtail, Giant plant response rating: 8 g ai/ha
Method in brief: as §1

[9] = test system: wheat (Triticum aestivum); experiment: Test B pre-/postemergence plant response; details: for Wheat plant response rating: 8 g ai/ha
Method in brief: as §1

[10] = test system: ducksalad (Heteranthera limosa); experiment: Test B flooded paddy test plant response
Method in brief: (§2)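 Rice, umbrella sedge, ducksalad and barnyardgrass at 2-leaf stage; pots flooded to 3 cm, compounds applied into paddy water, depth held throughout. Greenhouse 13 to 15 days, then visual rating vs untreated controls on 0–100 scale (0 no effect, 100 complete control); dash means no test result.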

[11] = test system: umbrella sedge (Cyperus difformis); experiment: Test B flooded paddy test plant response
Method in brief: as §2

rice (Oryza sativa) = experiment: Test B flooded paddy test plant response
Method in brief: as §2

[12] = test system: barnyardgrass (Echinochloa crus-galli); experiment: Test B flooded paddy test plant response
Method in brief: as §2

[13] = Postemergence, 16 g ai/ha, scale 0 to 100
[14] = Postemergence, 31 g ai/ha, scale 0 to 100, 0 no effect, 100 complete control
[15] = Postemergence, 62 g ai/ha, scale 0 to 100, 0 no effect, 100 complete control
[16] = Preemergence, 16 g ai/ha, scale 0 to 100 (0 no effect, 100 complete control)
[17] = Preemergence, 31 g ai/ha, 0 to 100 scale, 0 no effect, 100 complete control
[18] = Preemergence, 62 g ai/ha, scale 0 to 100
[19] = 16 g ai/ha, scale 0 to 100 (0 no effect, 100 complete control)
[20] = 31 g ai/ha, scale 0 to 100 (0 no effect, 100 complete control)
[21] = Preemergence, 31 g ai/ha, scale 0 to 100 (0 no effect, 100 complete control)
[22] = Preemergence, 62 g ai/ha, 0 to 100 scale, 0 no effect, 100 complete control
[23] = Flood (flooded paddy test), 62 g ai/ha, scale 0 to 100, 0 no effect, 100 complete control
[24] = Flood (flooded paddy test), 125 g ai/ha, scale 0 to 100, 0 no effect, 100 complete control
[25] = Flood (flooded paddy test), 250 g ai/ha, scale 0 to 100, 0 no effect, 100 complete control
[26] = Flood, 31 g ai/ha, scale 0 to 100

CCCc1cc(-c2ccc(Cl)cc2)nn1-c1c(O)cnn(C)c1=O [Compound 43]
60: Goosegrass plant response rating ([1]; postemergence, 0-100 scale) | Plant response rating, Bromegrass, Downy [2, 14]
30: Wheat plant response rating ([9]; postemergence, 0-100 scale) | Plant response rating, Ducksalad [10, 25]
15: Plant response rating, Wheat [9, 21] | Plant response rating, Rice (rice (Oryza sativa); [23])
0: Plant response rating, Bromegrass, Downy [2, 16] | Bromegrass, Downy plant response rating ([2]; Preemergence, scale 0 to 100) | Plant response rating, Russian Thistle [3, 19] | Plant response rating, Russian Thistle [3, 20] | Plant response rating, Russian Thistle ([3]; 62 g ai/ha, scale 0 to 100) | Russian Thistle plant response rating ([3]; 8 g ai/ha, scale 0 to 100) | Morningglory plant response rating ([4]; postemergence, 0-100 scale) | Plant response rating, Morningglory [4, 13] | Plant response rating, Morningglory [4, 14] | Plant response rating, Morningglory [4, 15] | Plant response rating, Morningglory [4, 16] | Plant response rating, Morningglory [4, 21] | Plant response rating, Morningglory [4, 18] | Morningglory plant response rating ([4]; Preemergence, scale 0 to 100) | Soybean plant response rating (soybean (Glycine max); postemergence, 0-100 scale) | Plant response rating, Soybean (soybean (Glycine max); [13]) | Plant response rating, Soybean (soybean (Glycine max); [15]) | Plant response rating, Soybean (soybean (Glycine max); [16]) | Plant response rating, Soybean (soybean (Glycine max); [21]) | Plant response rating, Soybean (soybean (Glycine max); [18]) | Soybean plant response rating (soybean (Glycine max); Preemergence, scale 0 to 100) | Surinam Grass plant response rating ([5]; Preemergence, scale 0 to 100) | Plant response rating, Nightshade, E. B. [6, 19] | Plant response rating, Nightshade, E. B. [6, 20] | Plant response rating, Nightshade, E. B. ([6]; 62 g ai/ha, scale 0 to 100) | Nightshade, E. B. plant response rating ([6]; 8 g ai/ha, scale 0 to 100) | Plant response rating, Sunflower [7, 19] | Plant response rating, Sunflower [7, 20] | Plant response rating, Sunflower ([7]; 62 g ai/ha, scale 0 to 100) | Sunflower plant response rating ([7]; 8 g ai/ha, scale 0 to 100) | Wheat plant response rating ([9]; Preemergence, scale 0 to 100) | Plant response rating, Ducksalad [10, 23] | Plant response rating, Ducksalad [10, 24] | Plant response rating, Ducksalad [10, 26] | Plant response rating, Sedge, Umbrella [11, 23] | Plant response rating, Sedge, Umbrella [11, 24] | Plant response rating, Sedge, Umbrella [11, 25] | Plant response rating, Sedge, Umbrella [11, 26] | Plant response rating, Rice (rice (Oryza sativa); [26])
100: Plant response rating, Goosegrass [1, 18] | Plant response rating, Surinam Grass [5, 15] | Plant response rating, Surinam Grass [5, 21] | Plant response rating, Surinam Grass [5, 22] | Plant response rating, Foxtail, Giant [8, 15] | Plant response rating, Foxtail, Giant [8, 16] | Plant response rating, Foxtail, Giant [8, 17] | Plant response rating, Foxtail, Giant [8, 18] | Plant response rating, Wheat [9, 15]
45: Plant response rating, Bromegrass, Downy [2, 13]
70: Plant response rating, Goosegrass [1, 13] | Plant response rating, Bromegrass, Downy [2, 17] | Plant response rating, Wheat [9, 13]
20: Plant response rating, Rice (rice (Oryza sativa); [24]) | Plant response rating, Rice (rice (Oryza sativa); [25])
90: Plant response rating, Surinam Grass [5, 16]
95: Plant response rating, Surinam Grass [5, 13] | Foxtail, Giant plant response rating ([8]; Preemergence, scale 0 to 100)
98: Plant response rating, Goosegrass [1, 17] | Plant response rating, Foxtail, Giant [8, 13] | Plant response rating, Foxtail, Giant [8, 14]
40: Bromegrass, Downy plant response rating ([2]; postemergence, 0-100 scale) | Plant response rating, Barnyardgrass [12, 26]
50: Plant response rating, Barnyardgrass [12, 23]
10: Plant response rating, Wheat [9, 16]
85: Plant response rating, Goosegrass [1, 15] | Foxtail, Giant plant response rating ([8]; postemergence, 0-100 scale)
75: Plant response rating, Goosegrass [1, 14] | Plant response rating, Goosegrass [1, 16] | Plant response rating, Barnyardgrass [12, 24]
65: Goosegrass plant response rating ([1]; Preemergence, scale 0 to 100) | Plant response rating, Bromegrass, Downy [2, 15] | Surinam Grass plant response rating ([5]; postemergence, 0-100 scale)
80: Plant response rating, Bromegrass, Downy [2, 18] | Plant response rating, Wheat [9, 22]
